From the supplement of paper PMC4862054

What was measured:
Settings in all cases: incubation time: 72 h
[1] = test system: CAL-120; assay: drug sensitivity score (DSS), CellTiter-Glo (DSS (AUC-based score)); higher = stronger drug effect (viability inhibition or cytotoxicity); extreme values may be limits of the assay
Outline: (§1)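 Breast cancer cell lines (20 µl suspension) were seeded into 384-well plates holding compound at 5 concentrations in 10-fold steps over a compound-specific 10,000-fold range, then incubated 72 h. CellTox Green fluorescence (485/520 nm) was read first, then CellTiter-Glo luminescence after 10 min at room temperature. Each plate was normalised to 0.1 % DMSO and a positive kill control. The drug sensitivity score was calculated from the area under the fitted dose-response curve.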

[2] = test system: MDA-MB-453; assay: as above
Outline: as §1

[3] = test system: MDA-MB-231; assay: as above
Outline: as §1

[4] = test system: HCC1599; assay: as above
Outline: as §1

[5] = test system: HDQ-P1; assay: as above
Outline: as §1

[6] = test system: Hs578T; assay: as above
Outline: as §1

[7] = test system: MCF-10A; assay: as above
Outline: as §1

[8] = test system: CAL-148; assay: as above
Outline: as §1

[9] = test system: MFM-223; assay: as above
Outline: as §1

[10] = test system: HCC1143; assay: as above
Outline: as §1

[11] = test system: CAL-85-1; assay: as above
Outline: as §1

[12] = test system: HCC1937; assay: as above
Outline: as §1

[13] = test system: BT-549; assay: as above
Outline: as §1

[14] = test system: MDA-MB-468; assay: as above
Outline: as §1

[15] = test system: MDA-MB-436; assay: as above
Outline: as §1

[16] = test system: MDA-MB-453; assay: normalised viability (% of control), CellTiter-Blue; higher = more viable cells (about 100 = DMSO control)
Outline: (§2)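 Each entry is normalised viability at a single listed concentration within a series. It comes from breast cancer cell lines incubated 72 h with compound in 384-well plates, then measured with CellTiter-Blue fluorescence at 560/590 nm. Every plate was normalised between vehicle (100) and a positive kill control (0).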

[17] = test system: MDA-MB-231; assay: as above
Outline: as §2

[18] = test system: SK-BR-3; assay: as above
Outline: as §2

[19] = test system: CAL-148; assay: as above
Outline: as §2

[20] = test system: MFM-223; assay: as above
Outline: as §2

[21] = test system: BT-474; assay: as above
Outline: as §2

[22] = test system: CAL-85-1; assay: as above
Outline: as §2

[23] = test system: BT-549; assay: as above
Outline: as §2

[24] = test system: MDA-MB-468; assay: as above
Outline: as §2

[25] = test system: CAL-51; assay: as above
Outline: as §2

CN(Cc1cnc2nc(N)nc(N)c2n1)c1ccc(C(=O)N[C@@H](CCC(=O)O)C(=O)O)cc1 [Methotrexate]
Settings	drug sensitivity score
[1]	17.3
[2]	0
[3]	7.21
[4]	1.47
[5]	23.1
[6]	2.72
[7]	0
[8]	0
[9]	0
[10]	0
[11]	9.24
[12]	30.2
[13]	0
[14]	0
[15]	3.7

normalised viability [%]
Settings	[16]	[17]	[18]	[19]	[20]	[21]	[22]	[23]	[24]	[25]
3 nM	108	–	–	99.8	–	–	98.5	–	–	108
10 nM	–	94.2	95.9	–	108	115	–	91.4	90.7	–
30 nM	102	–	–	91.5	–	–	84	–	–	101
100 nM	90.7	–	–	67.3	–	–	78	–	–	62.6
1000 nM	–	94.7	52	–	107	118	–	78.6	41.5	–
10000 nM	–	94.1	52.8	–	100	128	–	95.7	42.7	–

CO[C@@H]1[C@H](N(C)C(=O)c2ccccc2)C[C@H]2O[C@]1(C)n1c3ccccc3c3c4c(c5c6ccccc6n2c5c31)C(=O)NC4 [Midostaurin]
Settings	drug sensitivity score
[1]	9.74
[2]	0
[3]	10.8
[4]	0
[5]	6.88
[6]	15.7
[7]	17
[8]	0
[9]	3.44
[10]	8.75
[11]	2.25
[12]	7.38
[13]	13.8
[14]	14.6
[15]	3.96

normalised viability [%]
Settings	[16]	[17]	[18]	[19]	[20]	[21]	[22]	[23]	[24]	[25]
3 nM	108	–	–	115	–	–	112	–	–	97.5
10 nM	–	92.8	94	–	96.3	105	–	80.4	98.5	–
30 nM	92.1	–	–	105	–	–	111	–	–	87.9
100 nM	87.2	–	–	129	–	–	103	–	–	82.4
1000 nM	–	49.1	77.4	–	74.4	91.3	–	59.5	46.6	–
10000 nM	–	42.4	39.5	–	64.2	84.3	–	18.7	41.4	–

CO[C@@]12[C@H](COC(N)=O)C3=C(C(=O)C(C)=C(N)C3=O)N1C[C@@H]1N[C@@H]12 [Mitomycin C]
Settings	drug sensitivity score
[1]	0.335
[2]	0
[3]	0
[4]	0
[5]	0.633
[6]	0
[7]	0
[8]	0
[9]	0
[10]	0
[11]	2.91
[12]	0
[13]	8.27
[14]	4.87
[15]	3.39

normalised viability [%]
Settings	[16]	[17]	[18]	[19]	[20]	[21]	[22]	[23]	[24]	[25]
3 nM	124	–	–	97.3	–	–	104	–	–	119
10 nM	–	108	99.2	–	96.9	112	–	85	95.3	–
30 nM	94.5	–	–	102	–	–	98.4	–	–	118
100 nM	91.4	–	–	100	–	–	105	–	–	107
1000 nM	–	76.1	61.5	–	96.2	95.5	–	84.9	78.5	–
10000 nM	–	47.3	10.4	–	8.74	53.7	–	14.1	8.5	–

CCNC(=O)c1noc(-c2cc(C(C)C)c(O)cc2O)c1-c1ccc(CN2CCOCC2)cc1 [NVP-AUY922]
Settings	drug sensitivity score
[1]	9.4
[2]	12.4
[3]	13.3
[4]	3.99
[5]	17.4
[6]	11
[7]	16.2
[8]	12.5
[9]	14.9
[10]	11.2
[11]	14.1
[12]	13.8
[13]	14.1
[14]	21.8
[15]	14.8

normalised viability [%]
Settings	[16]	[17]	[18]	[19]	[20]	[21]	[22]	[23]	[24]	[25]
0.3 nM	124	–	–	98.7	–	–	101	–	–	107
1 nM	–	140	106	–	97.4	102	–	113	106	–
3 nM	98	–	–	108	–	–	96.8	–	–	106
10 nM	83.2	–	–	112	–	–	102	–	–	104
100 nM	–	39.1	16.2	–	26.1	27.7	–	29.3	27.3	–
1000 nM	–	31	16.8	–	25.4	22.3	–	31.7	23.3	–
